tested on: HBV; assay: HBV inhibition assay in HepG2.2.15 cells (qPCR of extracellular HBV DNA); type: cell-based, Hepatitis B virus; details: Hepatitis B virus, HepG2.2.15, 120 h, extracellular HBV DNA by qPCR, five days after compound treatment
Text: HepG2.2.15 is a stably-transfected cell line containing the HBV genome. It is derived from the hepatoblastoma cell line Hep G2 (American Type Culture Collection, ATCC® HB-8065™) by the published procedures described in reference: MA Selles et al. Proc. Natl. Acad. Sci. USA 1987, 84, 1005-1009. The cell line was maintained in Dulbecco's modified Eagle's medium and nutrient mixture F-12 (DMEM/F-12, Gibco, Cat.#: 11320-033) supplemented with 10% fetal bovine serum (Gibco, Cat.#:10099-141), 100 U/mL penicillin, 100 μg/mL streptomycin (Gibco, Cat.#:15140-122), and 0.3 mg/mL of G418 Sulfate (Gibco, Cat.#: 10131-027).
HepG2.2.15 cells were seeded into 96-well plates at a density of 3×10^4 cells per well in culture media of 100 μL DMEM/F-12 supplemented with 2.5% fetal bovine serum, 100 U/mL penicillin, 100 μg/mL streptomycin and cultured overnight at 37° C. The test compounds were serially half-log diluted in DMSO, then diluted 100 times in culture media. 100 μL culture media containing diluted compounds were added into the plates to reach 0.5% final concentration of DMSO in every well. Five days after compound treatment, culture supernatant was collected for further analysis.
For quantitative PCR detection of extracellular HBV DNA, culture supernatant was processed by 500 μg/mL Proteinase K (Sigma, Cat.#:P2308) digestion at 50° C. for 1 hour. After heat inactivation of the enzyme at 95° C. for 15 minutes, the samples were subjected to HBV DNA quantification by qPCR. The effective compound concentration at which HBV replication was inhibited by 50% (EC50) was determined.

Compound	EC50 [nM]
C[C@H]1Cn2ncc(N3C(=O)CC(N4CCC[C@H]4C(=O)O)[C@@H]3C)c2CN1C(=O)Nc1cc(F)c(F)c(F)c1 (stereo partly drawn) [Example 2, (2S)-1-[(2S)-2-methyl-1-[(6S)-6-methyl-5-[(3,4,5-trifluorophenyl)carbamoyl]-6,7-dihydro-4H-pyrazolo[1,5-a]pyrazin-3-yl]-5-oxo-pyrrolidin-3-yl]pyrrolidine-2-carboxylic acid]	98
C[C@H]1Cn2ncc(N3CC(N4CCC[C@H]4C(=O)O)CC3=O)c2CN1C(=O)Nc1cc(F)c(F)c(F)c1 (stereo partly drawn) [Example 1, (2S)-1-[1-[(6S)-6-methyl-5-[(3,4,5-trifluorophenyl)carbamoyl]-6,7-dihydro-4H-pyrazolo[1,5-a]pyrazin-3-yl]-5-oxo-pyrrolidin-3-yl]pyrrolidine-2-carboxylic acid]	126
C[C@H]1Cn2ncc(N3CC(c4cccc(C(=O)O)c4)CC3=O)c2CN1C(=O)Nc1cc(F)c(F)c(F)c1 (stereo partly drawn) [Example 8, 3-[1-[(6S)-6-methyl-5-[(3,4,5-trifluorophenyl)carbamoyl]-6,7-dihydro-4H-pyrazolo[1,5-a]pyrazin-3-yl]-5-oxo-pyrrolidin-3-yl]benzoic acid]	89
C[C@H]1[C@H](C)n2ncc(N3CC(N4CCC[C@H]4C(=O)O)CC3=O)c2CN1C(=O)Nc1cc(F)c(F)c(F)c1 (stereo partly drawn) [Example 6-1, (2S)-1-[1-[(6S,7S)-6,7-dimethyl-5-[(3,4,5-trifluorophenyl)carbamoyl]-6,7-dihydro-4H-pyrazolo[1,5-a]pyrazin-3-yl]-5-oxo-pyrrolidin-3-yl]pyrrolidine-2-carboxylic acid]	112
C[C@H]1Cn2ncc(N3CC(N4CCC[C@@H]4C(=O)O)CC3=O)c2CN1C(=O)Nc1cc(F)c(F)c(F)c1 (stereo partly drawn) [Example 9, (2R)-1-[1-[(6S)-6-methyl-5-[(3,4,5-trifluorophenyl)carbamoyl]-6,7-dihydro-4H-pyrazolo[1,5-a]pyrazin-3-yl]-5-oxo-pyrrolidin-3-yl]pyrrolidine-2-carboxylic acid]	124
C[C@H]1Cn2ncc(N3CC(Nc4ccccc4C(=O)O)CC3=O)c2CN1C(=O)Nc1cc(F)c(F)c(F)c1 (stereo partly drawn) [Example 12, 2-[[1-[(6S)-6-methyl-5-[(3,4,5-trifluorophenyl)carbamoyl]-6,7-dihydro-4H-pyrazolo[1,5-a]pyrazin-3-yl]-5-oxo-pyrrolidin-3-yl]amino]benzoic acid]	288
C[C@H]1Cn2ncc(N3CC(c4cc(F)ccc4C(=O)O)CC3=O)c2CN1C(=O)Nc1cc(F)c(F)c(F)c1 (stereo partly drawn) [Example 14, 4-Fluoro-2-[1-[(6S)-6-methyl-5-[(3,4,5-trifluorophenyl)carbamoyl]-6,7-dihydro-4H-pyrazolo[1,5-a]pyrazin-3-yl]-5-oxo-pyrrolidin-3-yl]benzoic acid]	30
C[C@H]1Cn2ncc(N3CC(N(C)CC(=O)O)CC3=O)c2CN1C(=O)Nc1cc(F)c(F)c(F)c1 (stereo partly drawn) [Example 3, 2-[Methyl-[1-[(6S)-6-methyl-5-[(3,4,5-trifluorophenyl)carbamoyl]-6,7-dihydro-4H-pyrazolo[1,5-a]pyrazin-3-yl]-5-oxo-pyrrolidin-3-yl]amino]acetic acid]	139
C[C@H]1Cn2ncc(N3CC(c4ccc(F)cc4C(=O)O)CC3=O)c2CN1C(=O)Nc1cc(F)c(F)c(F)c1 (stereo partly drawn) [Example 15, 5-Fluoro-2-[1-[(6S)-6-methyl-5-[(3,4,5-trifluorophenyl)carbamoyl]-6,7-dihydro-4H-pyrazolo[1,5-a]pyrazin-3-yl]-5-oxo-pyrrolidin-3-yl]benzoic acid]	57
C[C@H]1Cn2ncc(N3CC4COCC(C3=O)N4CC(=O)O)c2CN1C(=O)Nc1cc(F)c(F)c(F)c1 (stereo partly drawn) [Example 13, 2-[7-[(6S)-6-methyl-5-[(3,4,5-trifluorophenyl)carbamoyl]-6,7-dihydro-4H-pyrazolo[1,5-a]pyrazin-3-yl]-6-oxo-3-oxa-7,9-diazabicyclo[3.3.1]nonan-9-yl]acetic acid]	99
C[C@H]1Cn2ncc(N3CC(c4ccc(C(=O)O)cc4)CC3=O)c2CN1C(=O)Nc1cc(F)c(F)c(F)c1 (stereo partly drawn) [Example 16, 4-[1-[(6S)-6-methyl-5-[(3,4,5-trifluorophenyl)carbamoyl]-6,7-dihydro-4H-pyrazolo[1,5-a]pyrazin-3-yl]-5-oxo-pyrrolidin-3-yl]benzoic acid]	228
C[C@H]1Cn2ncc(N3CC(N4CCC(C(=O)O)C4)CC3=O)c2CN1C(=O)Nc1cc(F)c(F)c(F)c1 (stereo partly drawn) [Example 5, 1-[1-[(6S)-6-methyl-5-[(3,4,5-trifluorophenyl)carbamoyl]-6,7-dihydro-4H-pyrazolo[1,5-a]pyrazin-3-yl]-5-oxo-pyrrolidin-3-yl]pyrrolidine-3-carboxylic acid]	240
C[C@H]1Cn2ncc(N3CC(c4ncccc4C(=O)O)CC3=O)c2CN1C(=O)Nc1cc(F)c(F)c(F)c1 (stereo partly drawn) [Example 18, 2-[1-[(6S)-6-methyl-5-[(3,4,5-trifluorophenyl)carbamoyl]-6,7-dihydro-4H-pyrazolo[1,5-a]pyrazin-3-yl]-5-oxo-pyrrolidin-3-yl]pyridine-3-carboxylic acid]	102
C[C@H]1Cn2ncc(N3C(=O)CC(N4CCC[C@@H]4C(=O)O)[C@@H]3C)c2CN1C(=O)Nc1cc(F)c(F)c(F)c1 (stereo partly drawn) [Example 4, (2R)-1-[(2S)-2-methyl-1-[(6S)-6-methyl-5-[(3,4,5-trifluorophenyl)carbamoyl]-6,7-dihydro-4H-pyrazolo[1,5-a]pyrazin-3-yl]-5-oxo-pyrrolidin-3-yl]pyrrolidine-2-carboxylic acid]	105
C[C@H]1Cn2ncc(N3CC(c4ccccc4C(=O)O)CC3=O)c2CN1C(=O)Nc1cc(F)c(F)c(F)c1 (stereo partly drawn) [Example 7, 2-[1-[(6S)-6-methyl-5-[(3,4,5-trifluorophenyl)carbamoyl]-6,7-dihydro-4H-pyrazolo[1,5-a]pyrazin-3-yl]-5-oxo-pyrrolidin-3-yl]benzoic acid]	22

same assay, conditions: extracellular HBV DNA by qPCR, five days after compound treatment

Compound	EC50 [nM]
C[C@H]1Cn2ncc(N3CC(c4ccccc4C(=O)O)CC3=O)c2CN1C(=O)Nc1cc(F)c(F)c(F)c1 (single isomer, unassigned) [Example 7-2]	14
C[C@H]1Cn2ncc(N3CC(c4cccc(F)c4C(=O)O)CC3=O)c2CN1C(=O)Nc1cc(F)c(F)c(F)c1 (single isomer, unassigned) [Example 11-2]	77
C[C@H]1Cn2ncc(N3CC(c4ccccc4C(=O)O)CC3=O)c2CN1C(=O)Nc1cc(F)c(F)c(F)c1 (single isomer, unassigned) [Example 7-1]	34
C[C@H]1[C@H](C)n2ncc(N3CC(N4CCC[C@H]4C(=O)O)CC3=O)c2CN1C(=O)Nc1cc(F)c(F)c(F)c1 (stereo partly drawn) [Example 6-2, (2S)-1-[1-[(6S,7S)-6,7-dimethyl-5-[(3,4,5-trifluorophenyl)carbamoyl]-6,7-dihydro-4H-pyrazolo[1,5-a]pyrazin-3-yl]-5-oxo-pyrrolidin-3-yl]pyrrolidine-2-carboxylic acid]	99
C[C@H]1Cn2ncc(N3CC(c4c(F)cccc4C(=O)O)CC3=O)c2CN1C(=O)Nc1cc(F)c(F)c(F)c1 (single isomer, unassigned) [Example 10-1]	106
C[C@H]1Cn2ncc(N3CC(c4c(F)cccc4C(=O)O)CC3=O)c2CN1C(=O)Nc1cc(F)c(F)c(F)c1 (single isomer, unassigned) [Example 10-2]	17
C[C@H]1Cn2ncc(N3CC(c4cccc(F)c4C(=O)O)CC3=O)c2CN1C(=O)Nc1cc(F)c(F)c(F)c1 (single isomer, unassigned) [Example 11-1]	312

From patent US10562905B2, “Carboxy tetrahydropyrazolopyrazine compounds for the treatment of infectious diseases” (Hoffmann-La Roche Inc., priority 2016, dated 2020)
